Laboratory results from patent US11279707B2, “NEK inhibitors and methods of use” (DANA-FARBER CANCER INSTITUTE, INC., priority 2017, dated 2022).

Tests used:
Type in all cases: biochemical
[1] = molecular target: NEK7 (Homo sapiens, UniProt Q8TDX7); assay: kinase inhibition, NEK7
[2] = molecular target: T1, AXL (Homo sapiens, UniProt P30530); assay: kinase inhibition, AXL
T1 sequence (P30530 26-894): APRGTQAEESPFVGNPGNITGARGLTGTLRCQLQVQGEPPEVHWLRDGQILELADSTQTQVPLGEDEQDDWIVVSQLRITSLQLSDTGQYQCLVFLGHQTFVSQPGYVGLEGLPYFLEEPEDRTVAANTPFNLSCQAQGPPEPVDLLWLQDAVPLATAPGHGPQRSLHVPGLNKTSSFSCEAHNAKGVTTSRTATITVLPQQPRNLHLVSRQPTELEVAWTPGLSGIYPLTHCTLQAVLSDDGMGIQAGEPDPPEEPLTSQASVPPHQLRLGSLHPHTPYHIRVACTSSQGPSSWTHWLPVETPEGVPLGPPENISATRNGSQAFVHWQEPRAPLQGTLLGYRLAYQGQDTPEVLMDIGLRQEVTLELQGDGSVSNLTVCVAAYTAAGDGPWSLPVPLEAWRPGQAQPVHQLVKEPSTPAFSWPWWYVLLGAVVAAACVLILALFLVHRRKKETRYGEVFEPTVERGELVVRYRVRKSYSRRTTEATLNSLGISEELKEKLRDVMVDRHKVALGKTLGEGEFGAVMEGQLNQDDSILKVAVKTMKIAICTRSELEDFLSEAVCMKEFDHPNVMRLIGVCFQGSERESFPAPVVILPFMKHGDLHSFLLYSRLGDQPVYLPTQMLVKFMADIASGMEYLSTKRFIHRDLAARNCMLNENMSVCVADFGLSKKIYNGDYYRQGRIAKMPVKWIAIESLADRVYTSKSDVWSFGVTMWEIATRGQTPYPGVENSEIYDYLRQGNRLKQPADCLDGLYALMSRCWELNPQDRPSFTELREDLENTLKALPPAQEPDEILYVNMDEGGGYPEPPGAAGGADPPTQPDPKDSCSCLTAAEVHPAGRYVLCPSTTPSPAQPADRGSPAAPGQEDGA

[3] = molecular target: CLK; assay: kinase inhibition, CLK
[4] = molecular target: T2, MERTK (Homo sapiens, UniProt Q12866); assay: kinase inhibition, MERTK
T2 sequence (Q12866 21-999): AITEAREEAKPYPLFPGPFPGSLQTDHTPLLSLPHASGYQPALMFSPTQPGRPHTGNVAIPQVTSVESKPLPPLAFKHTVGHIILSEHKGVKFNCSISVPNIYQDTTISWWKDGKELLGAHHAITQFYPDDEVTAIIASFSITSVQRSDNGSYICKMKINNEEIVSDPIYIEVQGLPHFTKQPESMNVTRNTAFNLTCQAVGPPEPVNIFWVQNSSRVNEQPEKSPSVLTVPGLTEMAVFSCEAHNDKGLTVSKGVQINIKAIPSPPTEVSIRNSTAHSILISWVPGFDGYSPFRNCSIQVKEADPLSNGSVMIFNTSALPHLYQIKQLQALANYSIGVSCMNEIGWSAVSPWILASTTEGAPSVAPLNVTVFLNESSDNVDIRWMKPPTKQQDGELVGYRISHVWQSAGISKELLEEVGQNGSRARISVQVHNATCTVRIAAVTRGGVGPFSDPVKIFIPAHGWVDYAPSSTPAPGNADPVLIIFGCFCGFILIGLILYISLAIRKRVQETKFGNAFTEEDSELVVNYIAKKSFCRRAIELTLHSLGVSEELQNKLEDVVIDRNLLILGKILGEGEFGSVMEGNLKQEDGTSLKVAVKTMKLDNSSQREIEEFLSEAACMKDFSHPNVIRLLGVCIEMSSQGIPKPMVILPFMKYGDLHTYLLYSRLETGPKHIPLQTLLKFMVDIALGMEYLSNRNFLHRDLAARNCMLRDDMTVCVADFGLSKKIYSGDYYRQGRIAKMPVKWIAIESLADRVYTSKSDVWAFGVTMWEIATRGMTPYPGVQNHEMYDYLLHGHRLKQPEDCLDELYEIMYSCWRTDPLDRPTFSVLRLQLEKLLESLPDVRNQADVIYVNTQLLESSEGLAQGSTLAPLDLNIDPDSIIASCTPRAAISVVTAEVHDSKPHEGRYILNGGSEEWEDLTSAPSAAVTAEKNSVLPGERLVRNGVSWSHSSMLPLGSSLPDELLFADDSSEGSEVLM

[5] = molecular target: T3, NEK2 (Homo sapiens, UniProt P51955); assay: kinase inhibition, NEK2
T3 sequence (P51955 1-445): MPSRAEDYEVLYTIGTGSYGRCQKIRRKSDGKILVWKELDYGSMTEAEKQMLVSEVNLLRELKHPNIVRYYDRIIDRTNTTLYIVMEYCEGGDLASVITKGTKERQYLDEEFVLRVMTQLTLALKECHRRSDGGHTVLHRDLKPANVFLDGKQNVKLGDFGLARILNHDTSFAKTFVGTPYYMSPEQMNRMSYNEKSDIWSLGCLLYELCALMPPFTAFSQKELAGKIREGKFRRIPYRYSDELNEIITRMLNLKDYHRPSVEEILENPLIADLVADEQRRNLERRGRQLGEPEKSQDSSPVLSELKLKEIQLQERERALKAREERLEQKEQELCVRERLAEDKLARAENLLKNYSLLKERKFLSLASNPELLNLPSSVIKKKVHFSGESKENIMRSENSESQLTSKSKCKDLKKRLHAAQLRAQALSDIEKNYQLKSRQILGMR

[6] = molecular target: GSK3B (Homo sapiens, UniProt P49841); assay: kinase inhibition, GSK3B
GSK3B, sequence (P49841 whole entry, species assumed): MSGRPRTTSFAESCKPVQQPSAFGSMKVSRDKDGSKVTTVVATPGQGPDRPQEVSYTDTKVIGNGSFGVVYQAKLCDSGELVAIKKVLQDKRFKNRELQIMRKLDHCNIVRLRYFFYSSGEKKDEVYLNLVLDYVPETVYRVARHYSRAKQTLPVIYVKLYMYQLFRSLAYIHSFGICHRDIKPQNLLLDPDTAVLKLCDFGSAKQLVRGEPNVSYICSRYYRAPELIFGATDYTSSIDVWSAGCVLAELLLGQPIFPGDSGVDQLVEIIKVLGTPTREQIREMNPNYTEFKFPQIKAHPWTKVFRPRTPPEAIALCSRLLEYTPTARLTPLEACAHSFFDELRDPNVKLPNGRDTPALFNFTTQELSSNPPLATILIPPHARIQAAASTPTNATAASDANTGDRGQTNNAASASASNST

[7] = molecular target: T4, NEK9 (Homo sapiens, UniProt Q8TD19); assay: kinase inhibition, NEK9
T4 sequence (Q8TD19 1-979): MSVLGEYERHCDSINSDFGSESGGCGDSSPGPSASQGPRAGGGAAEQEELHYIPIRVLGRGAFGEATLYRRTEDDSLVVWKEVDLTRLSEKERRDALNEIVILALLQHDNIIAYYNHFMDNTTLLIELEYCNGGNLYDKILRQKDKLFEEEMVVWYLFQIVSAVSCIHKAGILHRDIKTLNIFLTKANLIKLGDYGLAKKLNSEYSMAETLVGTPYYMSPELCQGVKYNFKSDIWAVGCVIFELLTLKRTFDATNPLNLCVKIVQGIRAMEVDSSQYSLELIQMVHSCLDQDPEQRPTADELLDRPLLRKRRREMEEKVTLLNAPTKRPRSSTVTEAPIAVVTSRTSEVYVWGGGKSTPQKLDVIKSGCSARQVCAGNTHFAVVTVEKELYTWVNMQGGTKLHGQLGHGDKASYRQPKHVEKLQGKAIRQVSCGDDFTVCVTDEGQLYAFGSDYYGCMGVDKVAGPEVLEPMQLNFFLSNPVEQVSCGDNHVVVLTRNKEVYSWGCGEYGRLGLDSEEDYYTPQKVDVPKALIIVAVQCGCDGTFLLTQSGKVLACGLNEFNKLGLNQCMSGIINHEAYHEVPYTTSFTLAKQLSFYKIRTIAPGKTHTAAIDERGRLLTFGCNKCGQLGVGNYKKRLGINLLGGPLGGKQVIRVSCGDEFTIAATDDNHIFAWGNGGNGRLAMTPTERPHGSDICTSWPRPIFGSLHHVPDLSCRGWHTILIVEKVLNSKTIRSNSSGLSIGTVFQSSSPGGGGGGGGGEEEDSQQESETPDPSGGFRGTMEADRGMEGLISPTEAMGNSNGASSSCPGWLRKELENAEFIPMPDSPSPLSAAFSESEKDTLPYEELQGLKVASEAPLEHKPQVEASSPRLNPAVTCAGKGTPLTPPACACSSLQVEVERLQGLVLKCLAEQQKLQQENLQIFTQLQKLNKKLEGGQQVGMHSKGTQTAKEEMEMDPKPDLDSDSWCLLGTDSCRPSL

[8] = molecular target: NEK6 (Homo sapiens, UniProt Q9HC98); assay: kinase inhibition, NEK6
NEK6, sequence (Q9HC98 whole entry, species assumed): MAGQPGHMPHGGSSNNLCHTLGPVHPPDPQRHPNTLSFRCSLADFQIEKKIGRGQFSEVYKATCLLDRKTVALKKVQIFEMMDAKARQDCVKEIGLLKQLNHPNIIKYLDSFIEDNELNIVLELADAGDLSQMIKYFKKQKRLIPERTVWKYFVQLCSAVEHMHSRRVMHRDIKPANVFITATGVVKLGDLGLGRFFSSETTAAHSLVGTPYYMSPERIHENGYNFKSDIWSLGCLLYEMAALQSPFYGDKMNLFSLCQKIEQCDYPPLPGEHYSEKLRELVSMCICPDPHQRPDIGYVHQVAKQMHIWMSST

[9] = molecular target: RSK1 (Homo sapiens, UniProt Q15418); assay: kinase inhibition, RSK1
RSK1, sequence (Q15418 whole entry, species assumed): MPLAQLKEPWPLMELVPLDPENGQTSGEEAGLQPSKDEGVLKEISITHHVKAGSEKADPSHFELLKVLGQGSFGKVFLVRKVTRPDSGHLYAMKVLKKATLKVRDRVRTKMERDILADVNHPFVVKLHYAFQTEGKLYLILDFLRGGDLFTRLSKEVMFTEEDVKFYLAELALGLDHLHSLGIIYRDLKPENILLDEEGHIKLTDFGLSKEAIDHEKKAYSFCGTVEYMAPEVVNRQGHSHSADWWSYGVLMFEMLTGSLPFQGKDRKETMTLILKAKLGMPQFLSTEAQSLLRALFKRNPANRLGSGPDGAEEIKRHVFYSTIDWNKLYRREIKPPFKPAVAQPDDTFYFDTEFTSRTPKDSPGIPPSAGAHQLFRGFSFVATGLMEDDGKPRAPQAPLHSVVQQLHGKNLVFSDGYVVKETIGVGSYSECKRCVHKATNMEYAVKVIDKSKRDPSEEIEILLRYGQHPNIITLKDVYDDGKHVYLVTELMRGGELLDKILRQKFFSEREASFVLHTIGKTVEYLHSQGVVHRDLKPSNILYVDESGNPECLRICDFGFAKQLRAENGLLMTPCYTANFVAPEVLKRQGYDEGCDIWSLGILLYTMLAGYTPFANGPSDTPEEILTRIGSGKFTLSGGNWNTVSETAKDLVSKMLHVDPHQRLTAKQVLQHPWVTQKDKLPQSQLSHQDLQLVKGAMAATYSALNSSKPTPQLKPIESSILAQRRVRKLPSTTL

NEK7, sequence (Q8TDX7 whole entry, species assumed): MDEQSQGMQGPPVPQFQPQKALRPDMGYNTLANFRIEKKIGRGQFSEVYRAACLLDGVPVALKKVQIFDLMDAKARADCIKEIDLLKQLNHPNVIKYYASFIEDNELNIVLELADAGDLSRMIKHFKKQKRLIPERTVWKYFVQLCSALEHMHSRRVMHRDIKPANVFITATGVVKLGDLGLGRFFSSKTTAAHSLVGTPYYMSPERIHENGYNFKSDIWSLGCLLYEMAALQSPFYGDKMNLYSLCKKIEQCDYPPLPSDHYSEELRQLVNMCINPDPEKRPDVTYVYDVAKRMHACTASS

IC50 [1]: 250 to 1000 nM
IC50 [2]: 250 to 1000 nM
IC50 [3]: 50 to 250 nM
IC50 [4]: 250 to 1000 nM
IC50 [5]: 50 to 250 nM
IC50 [6]: 250 to 1000 nM
IC50 [8]: 1000 to 5000 nM
IC50 [9]: 250 to 1000 nM
Structure (SMILES): CN1CCN(c2ccc(Nc3ncc4c(n3)N3c5ccccc5CC3C(=O)N4C)cc2)CC1 (stereo not drawn) [Compound I-7]
IC50 [7]: ≤ 50 nM
